Reference: patent US20260234464A1, “POLYALKYL PHOSPHONATED POLYOL ETHER BASED SCALE INHIBITORS” (ChampionX LLC, priority 2023, published 2026)

Test: static efficiency test of sulfate scale inhibition
Details: 90° C., one hour after mixing anion and cation brine 1:1 (v/v), Ba2+ in solution; for inhibition efficiency, Brine A: SI dosage 1 ppm; for inhibition efficiency, Brine B: SI dosage 7.5 ppm; for inhibition efficiency, Brine C: SI dosage 5 ppm; for inhibition efficiency, Brine D: SI dosage 30 ppm
Description: Anion brine and cation brines A, B, C, and D were prepared according to Table 1. The preheated anion brine and cation brine were mixed at 1:1 (v/v) ratio to achieve the targeted concentration. Briefly. In the blank test, no scale inhibitor (SI) was added, but a known amount of various SI was added to other test bottles to understand the performance of various SIs. In the scale inhibition tests, inhibition performance or inhibition efficiency at 90° C., especially for barite inhibition at one hour after mixing of anion and cation brine with and without presence of SI was determined using the following equation:
[formula] • At where: • Ca is the concentration (mg/L) of Ba^2+ in solution after the one-hour test with scale inhibitor. • Cb is the concentration (mg/L) of Ba^2+ in solution in the blank after the one-hour test (without scale inhibitor). • Co is the concentration (mg/L) of the resulting Ba^2+ in synthetic water.
The SI dosages in Brine A, B, C and […] was 1, 7.5, 5, and 30 ppm, respectively.

| SMILES | inhibition efficiency, Brine A [%] | inhibition efficiency, Brine B [%] | inhibition efficiency, Brine C [%] | inhibition efficiency, Brine D [%] |
| --- | --- | --- | --- | --- |
| O=P(O)(O)CN(CCO)CC(O)COCC(O)C(OCC(O)CN(CCO)CP(=O)(O)O)C(O)C(COCC(O)CN(CCO)CP(=O)(O)O)OCC(O)CN(CCO)CP(=O)(O)O (stereo not shown) [Example 3, 10,12-bis(2-hydroxy-3-((2-hydroxyethyl)(phosphonomethyl)amino)propoxy)-3,18-bis(phosphonomethyl)-7,14-dioxa-3,18-diazaicosane-1,5,9,11,16,20-hexaol] | 48 | 36 | 71 | 5 |
| O=P(O)(O)CN(CC(O)COCC(CO)OCC(O)CN(CP(=O)(O)O)CP(=O)(O)O)CP(=O)(O)O (stereo not shown) [Example 5] | 42 | 86 | 86 | 42 |
| O=P(O)(O)CN(CCN(CP(=O)(O)O)CP(=O)(O)O)CCN(CP(=O)(O)O)CP(=O)(O)O [DTPMP, diethylenetriamine penta(methylene phosphonic acid), reference compound] | 94 | 77 | 100 | 24 |
| O=P(O)(O)CN(CCNCC(O)COCC(O)C(OCC(O)CNCCN(CP(=O)(O)O)CP(=O)(O)O)C(O)C(COCC(O)CNCCN(CP(=O)(O)O)CP(=O)(O)O)OCC(O)CNCCN(CP(=O)(O)O)CP(=O)(O)O)CP(=O)(O)O (stereo not shown) [Example 2, 12,14-bis(3-((2-(bis(phosphonomethyl)amino)ethyl)amino)-2-hydroxypropoxy)-2,23-(bis(phosphonomethyl)amino)-9,16-dioxa-2,5,20,23-tetraazatetracosane-7,11,13,18-tetraol] | 100 | 100 | 84 | 83 |
| O=P(O)(O)CN(CC(O)COCCCCOCC(O)CN(CP(=O)(O)O)CP(=O)(O)O)CP(=O)(O)O (stereo not shown) [Example 6, 3,3-(butane-1,4-diylbis(oxy))bis(1-(bis(phosphonomethyl))propan-2-ol)] | 47 | 63 | 98 | 6 |
| CN(CC(O)COCC(O)C(OCC(O)CN(C)CP(=O)(O)O)C(O)C(COCC(O)CN(C)CP(=O)(O)O)OCC(O)CN(C)CP(=O)(O)O)CP(=O)(O)O (stereo not shown) [Example 4] | 23 | 7 | 5 | 2 |
| O=P(O)(O)CN(CC(O)COCC(O)C(OCC(O)CN(CP(=O)(O)O)CP(=O)(O)O)C(O)C(COCC(O)CN(CP(=O)(O)O)CP(=O)(O)O)OCC(O)CN(CP(=O)(O)O)CP(=O)(O)O)CP(=O)(O)O (stereo not shown) [Example 1, 1,3,5,6-Tetrakis{3-[bis(phosphonomethyl)amino]-2-hydroxypropoxy}-2,4-hexandiol] | 57 | 88 | 67 | 42 |
